“And” between values parts separate entries of the source, which are not always exact repeats. Equal entries are not always repeated.
Legend:
[1] = xn = mol fraction of the nth substance listed; details: 101 kPa, Liquid; for viscosity: Capillary tube (Ostwald / Ubbelohde) method; for mass density: Vibrating tube method
[2] = refractive index (Na D-line) (dimensionless); xn = mol fraction of the nth substance listed; details: 101 kPa, Liquid, Standard Abbe refractometry
[3] = 101 kPa, Liquid; for viscosity: Capillary tube (Ostwald / Ubbelohde) method; for mass density: Vibrating tube method
[4] = refractive index (Na D-line) (dimensionless); details: 101.33 kPa, Liquid, Standard Abbe refractometry

CCCCC1CCCCC1 [butylcyclohexane] + C1C[C@@H]2[C@H]3CC[C@H](C3)[C@@H]2C1
x2 = 0
Details | mass density, [1] [kg/m3] | refractive index, [2] | viscosity, [1] [mPa·s]
293.15 K | 799.47 | 1.4399 | 1.302
298.15 K | 795.71 | – | 1.2
303.15 K | 791.96 | 1.4354 | 1.111
308.15 K | 788.2 | – | 1.032
313.15 K | 784.43 | 1.4311 | 0.962
318.15 K | 780.65 | – | 0.899

C1C[C@@H]2[C@H]3CC[C@H](C3)[C@@H]2C1 [exo-tetrahydrodicyclopentadiene] + CC1CCC(C)C(C)C1
x1 = 1
Details | mass density, [1] [kg/m3] | refractive index, [2] | viscosity, [1] [mPa·s]
293.15 K | 935.72 | 1.4874 | 2.992
298.15 K | 931.84 | – | 2.71
303.15 K | 927.94 | 1.4831 | 2.467
308.15 K | 924.02 | – | 2.255
313.15 K | 920.11 | 1.4786 | 2.069
318.15 K | 916.18 | – | 1.907

C1CCCCC1 [cyclohexane]
Details | mass density, [3] [kg/m3] | refractive index, [4] | viscosity, [3] [mPa·s]
293.15 K | 778.51 | 1.4256 | 0.977
298.15 K | 773.84 | – | 0.898
303.15 K | 769.11 | 1.4205 | 0.828
308.15 K | 764.36 | – | 0.766
313.15 K | 759.57 | 1.4143 | 0.712
318.15 K | – | – | 0.664

C1C[C@@H]2[C@H]3CC[C@H](C3)[C@@H]2C1 [exo-tetrahydrodicyclopentadiene]
Details | mass density, [3] | refractive index, [4] | viscosity, [3] [mPa·s]
293.15 K | 935.72 kg/m3 | 1.4874 | 2.992
298.15 K | 931.84 kg/m3 | – | 2.71
303.15 K | 927.94 kg/m3 and 927.9 kg/m3 | 1.4831 | 2.467
308.15 K | 924.02 kg/m3 | – | 2.255
313.15 K | 920.11 kg/m3 | 1.4786 | 2.069
318.15 K | 916.18 kg/m3 | – | 1.907

CC1CCC(C)C(C)C1 (stereo not drawn) [1,2,4-trimethylcyclohexane]
Details | mass density, [3] [kg/m3] | refractive index, [4] | viscosity, [3] [mPa·s]
293.15 K | 790.8 | 1.4331 | 0.886
298.15 K | 786.92 | – | 0.827
303.15 K | 783.03 | 1.4285 | 0.774
308.15 K | 779.13 | – | 0.727
313.15 K | 775.23 | 1.424 | 0.686
318.15 K | 771.32 | – | 0.648

CCCCC1CCCCC1 [butylcyclohexane]
Details | mass density, [3] [kg/m3] | refractive index, [4] | viscosity, [3] [mPa·s]
293.15 K | 799.47 | 1.4399 | 1.302
298.15 K | 795.71 | – | 1.2
303.15 K | 791.96 | 1.4354 | 1.111
308.15 K | 788.2 | – | 1.032
313.15 K | 784.43 | 1.4311 | 0.962
318.15 K | 780.65 | – | 0.899

CC1CCCCC1 [methylcyclohexane]
Details | mass density, [3] [kg/m3] | refractive index, [4] | viscosity, [3] [mPa·s]
293.15 K | 769.35 | 1.422 | 0.733
298.15 K | 765.04 | – | 0.687
303.15 K | 760.71 | 1.4172 | 0.646
308.15 K | 756.36 | – | 0.609
313.15 K | 751.99 | 1.4118 | 0.576
318.15 K | 747.6 | – | 0.546

C1C[C@@H]2[C@H]3CC[C@H](C3)[C@@H]2C1 [exo-tetrahydrodicyclopentadiene] + CCC1CCCCC1
x1 = 1
Details | mass density, [1] [kg/m3] | refractive index, [2] | viscosity, [1] [mPa·s]
293.15 K | 935.72 | 1.4874 | 2.992
298.15 K | 931.84 | – | 2.71
303.15 K | 927.9 | 1.4831 | 2.467
308.15 K | 924.02 | – | 2.255
313.15 K | 920.11 | 1.4786 | 2.069
318.15 K | 916.18 | – | 1.907

CC1CCCCC1 [methylcyclohexane] + C1C[C@@H]2[C@H]3CC[C@H](C3)[C@@H]2C1
x2 = 0
Details | mass density, [1] [kg/m3] | refractive index, [2] | viscosity, [1] [mPa·s]
293.15 K | 769.35 | 1.422 | 0.733
298.15 K | 765.04 | – | 0.687
303.15 K | 760.71 | 1.4172 | 0.646
308.15 K | 756.36 | – | 0.609
313.15 K | 751.99 | 1.4118 | 0.576
318.15 K | 747.6 | – | 0.546

C1CCCCC1 [cyclohexane] + C1C[C@@H]2[C@H]3CC[C@H](C3)[C@@H]2C1
x2 = 0
Details | mass density, [1] [kg/m3] | refractive index, [2] | viscosity, [1] [mPa·s]
293.15 K | 778.51 | 1.4256 | 0.977
298.15 K | 773.84 | – | 0.898
303.15 K | 769.11 | 1.4205 | 0.828
308.15 K | 764.36 | – | 0.766
313.15 K | 759.57 | 1.4143 | 0.712
318.15 K | – | – | 0.664

CCC1CCCCC1 [ethylcyclohexane]
Details | mass density, [3] [kg/m3] | refractive index, [4] | viscosity, [3] [mPa·s]
293.15 K | 788.02 | 1.4319 | 0.845
298.15 K | 784.01 | – | 0.791
303.15 K | 779.98 | 1.4276 | 0.743
308.15 K | 775.93 | – | 0.7
313.15 K | 771.86 | 1.4225 | 0.661
318.15 K | 767.78 | – | 0.626

— the NIST ThermoML archive (doi:10.1021/je400529k)
